Data taken from patent US7662815B2, “Diaryl ether β2 adrenergic receptor agonists” (Theravance, Inc., priority 2004, dated 2010).

Target: T1, human β2 adrenergic receptor (Homo sapiens, UniProt P07550)
T1 construct: expressed in transfected cells; membranes prepared from the cells
Test: Radioligand binding assay on human β1 and β2 adrenergic receptors ([3H]dihydroalprenolol displacement)
Conditions: binding at β2 versus β1 adrenergic receptor; HEK-293 membranes
Experimental: HEK-293 derived cell lines stably expressing cloned human β1 or β2 adrenergic receptors, respectively, were grown to near confluency in DMEM with 10% dialyzed FBS in the presence of 500 μg/mL Geneticin. The cell monolayer was lifted with Versene 1:5,000 (0.2 g/L EDTA in PBS) using a cell scraper. Cells were pelleted by centrifugation at 1,000 rpm, and cell pellets were either stored frozen at −80° C. or membranes were prepared immediately. […] Protein concentration of the membrane suspension was determined by the method of Bradford (Bradford M M., Analytical Biochemistry, 1976, 72, 248-54). […]
Binding assays were performed in 96-well microtiter plates in a total assay volume of 100 μL with 5 μg membrane protein for membranes containing the human β2 adrenergic receptor, or 2.5 μg membrane protein for membranes containing the human 01 adrenergic receptor in assay buffer (75 mM Tris/HCl pH 7.4 @ 25° C., 12.5 mM MgCl2, 1 mM EDTA, 0.2% BSA). […] Non-specific binding was determined in the presence of 10 μM unlabeled alprenolol. […] Filter plates were washed three times with filtration buffer (75 mM Tris/HCl pH 7.4 @4° C., 12.5 mM MgCl2, 1 mM EDTA) to remove unbound radioactivity. […] Binding data were analyzed by nonlinear regression analysis with the GraphPad Prism Software package (GraphPad Software, Inc., San Diego, Calif.) using the 3-parameter model for one-site competition. […]

T1 sequence (P07550 whole entry): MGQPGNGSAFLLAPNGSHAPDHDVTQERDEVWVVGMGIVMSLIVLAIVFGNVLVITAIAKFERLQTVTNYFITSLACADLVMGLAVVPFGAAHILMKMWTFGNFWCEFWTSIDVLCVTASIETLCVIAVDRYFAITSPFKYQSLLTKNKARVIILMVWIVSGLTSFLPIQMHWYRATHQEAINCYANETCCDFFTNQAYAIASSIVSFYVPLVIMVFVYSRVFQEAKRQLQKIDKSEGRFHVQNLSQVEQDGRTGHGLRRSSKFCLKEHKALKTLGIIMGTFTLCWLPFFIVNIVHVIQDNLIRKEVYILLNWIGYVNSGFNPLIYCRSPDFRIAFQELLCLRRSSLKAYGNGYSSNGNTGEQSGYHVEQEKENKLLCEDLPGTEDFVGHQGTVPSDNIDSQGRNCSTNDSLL

## COc1ccc(Oc2ccc(CCNC[C@H](O)c3ccc(O)c4[nH]c(=O)ccc34)cc2)cc1-c1ccccc1 [Example 1, 8-Hydroxy-5-((R)-1-hydroxy-2-{2-[4-(6-methoxybiphenyl-3-yloxy)phenyl]ethylamino}ethyl)-1H-quinolin-2-one]
  receptor subtype selectivity, ratio Ki(β1)/Ki(β2): about 18
